# Assays:
# SAC1 [1] = target: T1, SAC1 (Mus musculus, UniProt Q9EPK8); assay: Fluorescence measurement (fura-2) of SAC1 expression cells under touch stress; assay type: cell-based; details: SAC1 expression CHO cells (GFP positive), touched by glass pipette, added Gd^3+; no added Gd^3+ gave 12.8 ± 1.4, control cells 4.5 ± 3.8
# T1 construct: the region containing the full length was amplified by PCR using primer set (A13st1 and mA13end1); expressed in transfected cells; host or cells: CHO cells, transient co-transfection of SAC1 in pCMV-SPORT with pEGFP-N1 as a separate marker plasmid
# T1 sequence (Q9EPK8 whole entry): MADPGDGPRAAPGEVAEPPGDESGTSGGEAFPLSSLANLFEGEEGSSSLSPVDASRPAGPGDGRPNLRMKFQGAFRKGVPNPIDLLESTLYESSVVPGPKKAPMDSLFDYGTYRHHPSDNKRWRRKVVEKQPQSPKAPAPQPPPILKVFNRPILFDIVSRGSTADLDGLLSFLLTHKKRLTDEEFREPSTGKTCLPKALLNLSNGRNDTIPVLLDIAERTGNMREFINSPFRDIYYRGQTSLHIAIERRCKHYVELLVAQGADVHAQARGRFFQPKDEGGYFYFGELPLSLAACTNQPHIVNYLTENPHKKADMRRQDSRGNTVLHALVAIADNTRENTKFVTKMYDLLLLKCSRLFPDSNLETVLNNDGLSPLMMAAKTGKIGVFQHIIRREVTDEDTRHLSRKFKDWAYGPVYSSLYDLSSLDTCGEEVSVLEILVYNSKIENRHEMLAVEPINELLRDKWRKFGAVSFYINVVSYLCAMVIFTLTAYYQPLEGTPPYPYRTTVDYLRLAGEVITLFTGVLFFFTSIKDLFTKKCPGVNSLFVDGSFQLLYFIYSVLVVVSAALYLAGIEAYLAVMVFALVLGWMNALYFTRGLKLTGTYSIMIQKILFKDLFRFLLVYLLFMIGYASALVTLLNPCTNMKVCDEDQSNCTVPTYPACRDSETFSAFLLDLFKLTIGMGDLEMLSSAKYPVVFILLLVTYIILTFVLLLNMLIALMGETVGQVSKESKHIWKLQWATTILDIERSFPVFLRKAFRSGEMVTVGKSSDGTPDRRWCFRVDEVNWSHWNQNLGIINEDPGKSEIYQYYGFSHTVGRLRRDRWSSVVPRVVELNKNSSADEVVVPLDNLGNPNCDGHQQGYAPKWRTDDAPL
# Procedure: (§1) The plasmid (pEGFP-N1; Clonetech Co.) expressing a green fluorescent protein was used as a marker for transfection. For the transient expression of protein, CHO cells were cultured in a HamF-12 culture medium (Gibco-BRL Co.) supplemented with 10% fetal bovine serum, 100 U/ml penicillin, and 100 μg/ml streptomycin. On the day before transformation, CHO cells (10^5 cells) were seeded to a 35 mm dish in which a cover slip coated with rat tail collagen was placed. On the next day, SAC1 plasmid (1 μg) in PCMV-SPORT (Gibco-BRL Co.) and pEGFP-N1 (1 μg) were added per one transfection to a mixture of serum-free medium (97 μl) and FuGENE6 (Roche, 3 μl) which had been incubated for 5 minutes at room temperature. […] The electrophysiological test was started after 24 hours and the fluorescence measurement was carried out 48 hours after the transfection.
# For 2-3 hours prior to start of the test, the transformed cells were incubated with 10 μM fura-2AM (Dojin Co.) dissolved in a serum-free culture medium. GFP fluorescence at 480 nm and fura-2 fluorescence at 360/380 nm were visualized by a manual exchange of dichroic Olympus system mirrors (Merlin Co.). Images for the fluorescence at 480 nm and fluorescence at 360/380 nm were obtained every two seconds. The fluorescence intensity of the objective area was calculated for analysis. […]
# SAC1 [2] = target: T1, SAC1; assay: Single channel analysis (patch clamp) of SAC1 expression cells under negative pressure; assay type: cell-based
# Procedure: as §1, with “placed.” for “placed. On the next day, SAC1 plasmid (1 μg) in PCMV-SPORT (Gibco-BRL Co.) and pEGFP-N1 (1 μg) were added per one transfection to a mixture of serum-free medium (97 μl) and FuGENE6 (Roche, 3 μl) which had been incubated for 5 minutes at room temperature.”
# Patch clamp recordings were carried out according to the method described in a previous paper (Suzuki, M., Sato, J., Kutsuwada, K., Ooki, G. and Imai, M. (1999) J. Biol. Chem. 274, 6330-5). GFP positive cells were visualized by a fluorescence measurement with an emission of 490 nm (CAM 2000 system; Jusco Co., Ltd.). […] In single channel analysis, the current was recorded with an EPC-7 patch clamp amplifier (List-Electronic Co., Ltd.) and stored on a DAT recorder (DAT-200; Sony Corp.) at 10 KHz. […] The data were analyzed using Igor ver. […] To analyze the open probability in the presence of GdCl3, single channel amplitude was set for those without reagent and the mean open probability (Po) was determined by the records during 10 seconds. […]
smiles,measurement,setting,value
"[Cl][Gd]([Cl])[Cl] [Gd^3+, GdCl3]",change of the fura-2 fluorescence ratio (360 nm/380 nm) on mechanical stimulus,SAC1 [1],4.8 ± 1.4 (10)
same,response (mean open probability Po) to negative pressure,"SAC1 [2]; 0.5 μM GdCl3 added to the pipette, cell-attached, FIG. 3C",not affected
same,effect on single channel activated by negative pressure,SAC1 [2]; transformed cells that express SAC1,blocked
